Test results from patent US9943482B2, “Milk-derived microvesicle compositions and related methods” (UNIVERSITY OF LOUISVILLE RESEARCH FOUNDATION, INC., priority 2013, dated 2018).
Read-outs that look alike come from different tables or passages of the source.

Legend:
[1] = In vitro release from loaded exosomes, dialysis tubes against buffer with Tween-80 at 37° C.; format: physicochemical
Experimental: (§1) Several procedures were developed to load therapeutic agents onto the milk- or colostrum-derived exosomes. […] In one preferred embodiment, incubation of exosomes in PBS with test agents in the presence of 10% ethanol or 10% ethanol:acetonitrile (1:1) allowed for increased loading of therapeutic agents into the exosomes. The agents utilized in those studies included curcumin, withaferin A, demethoxycurcumin, delphinidin, cyanidin, a native mixture of (five) anthocyanidins from bilberry, punicalagin, and tanshinone II. The chemotherapeutic agents doxorubicin, paclitaxel, and docetaxel were also loaded in the exosomes. In this regard, it was observed that the exosomes accepted both hydrophobic (paclitaxel, docetaxel, curcumin, withaferin A, tanshinone II) and hydrophilic agents (berry anthocyanidins, punicalagin) with a loading efficiency of 4% to 65% with respect to exosomal proteins, as determined by measurement of the drug and exosomal protein contents (Tables IV and V). Sucrose density gradient ultracentrifugation confirmed the presence of drugs embedded in the exosomes (FIGS. 5-8). When tested for in vitro release using dialysis tubes against buffer containing the surfactant, Tween-80 [47] at 37° C., PAC and WFA were released time-dependently—20%, 43% and 70% PAC in 2, 6 and 19 h, and 12%, 40% and 58% WFA in 1, 4, and 24 h, respectively (FIGS. 10, 11A, and 11B).

[2] = Loading of therapeutic agents into bovine milk-derived exosomes; format: physicochemical
Experimental: as §1

[3] = 3 mg chemo. drug, 30 mg exosomal protein (Sample A)
[4] = 6 mg chemo. drug, 30 mg exosomal protein (Sample B)
[5] = 9 mg chemo. drug, 30 mg exosomal protein (Sample C)
[6] = 12 mg chemo. drug, 30 mg exosomal protein (Sample D)
[7] = 18 mg chemo. drug, 30 mg exosomal protein (Sample E)

| stability of agent extracted from residual material of the release study [1] | in vitro release from exosomes ([1]; 2 h) [%] | in vitro release from exosomes ([1]; 6 h) [%] | in vitro release from exosomes ([1]; 19 h) [%] | % Drug load [2, 3] [%] | % Drug load [2, 4] [%] | % Drug load [2, 5] [%] | % Drug load [2, 6] [%] | % Drug load [2, 7] [%] | Structure (SMILES) | in vitro release from exosomes ([1]; 1 h) [%] | in vitro release from exosomes ([1]; 4 h) [%] | in vitro release from exosomes ([1]; 24 h) [%] | stability of agent extracted from residual material of the release study ([1]; HPLC or UV spectral analysis) | % Drug load ([2]; 5 mg agent, 50 mg exosomal protein (Sample A)) [%] | % Drug load ([2]; 10 mg agent, 50 mg exosomal protein (Sample B)) [%] | % Drug load ([2]; 20 mg agent, 50 mg exosomal protein (Sample C)) [%] | % Drug load ([2]; 25 mg agent, 50 mg exosomal protein (Sample D)) [%] |
| --- | --- | --- | --- | --- | --- | --- | --- | --- | --- | --- | --- | --- | --- | --- | --- | --- | --- |
| – | – | – | – | – | – | – | – | – | CC1=C(CO)C(=O)O[C@@H]([C@@H](C)[C@H]2CC[C@H]3[C@@H]4C[C@H]5O[C@]56[C@@H](O)C=CC(=O)[C@]6(C)[C@H]4CC[C@]23C)C1 [Withaferin A, withaferin A] | 12 | 40 | 58 | stable during the workup | 3.8 | 8.6 | 31.4 | 44.8 |
| stable during the workup | 20 | 43 | 70 | 15.7 | 20.3 | 14.9 | 36.6 | 64.6 | CC(=O)O[C@H]1C(=O)[C@@]2(C)[C@H]([C@H](OC(=O)c3ccccc3)[C@]3(O)C[C@H](OC(=O)[C@H](O)[C@@H](NC(=O)c4ccccc4)c4ccccc4)C(C)=C1C3(C)C)[C@]1(OC(C)=O)CO[C@@H]1C[C@@H]2O [Paclitaxel, paclitaxel] | – | – | – | – | – | – | – | – |
| stable during the workup | – | – | – | 6.0 | 17.7 | 34.5 | 49.1 | 55.1 | CC(=O)O[C@@]12CO[C@@H]1C[C@H](O)[C@@]1(C)C(=O)[C@H](O)C3=C(C)[C@@H](OC(=O)[C@H](O)[C@@H](NC(=O)OC(C)(C)C)c4ccccc4)C[C@@](O)([C@@H](OC(=O)c4ccccc4)[C@H]21)C3(C)C [Docetaxel, docetaxel] | – | – | – | – | – | – | – | – |
